Target: Acetylcholinesterase (AChE) (Electrophorus electricus, UniProt O42275)
Assay type: biochemical

Acetylcholinesterase (AChE), sequence (O42275 24-633): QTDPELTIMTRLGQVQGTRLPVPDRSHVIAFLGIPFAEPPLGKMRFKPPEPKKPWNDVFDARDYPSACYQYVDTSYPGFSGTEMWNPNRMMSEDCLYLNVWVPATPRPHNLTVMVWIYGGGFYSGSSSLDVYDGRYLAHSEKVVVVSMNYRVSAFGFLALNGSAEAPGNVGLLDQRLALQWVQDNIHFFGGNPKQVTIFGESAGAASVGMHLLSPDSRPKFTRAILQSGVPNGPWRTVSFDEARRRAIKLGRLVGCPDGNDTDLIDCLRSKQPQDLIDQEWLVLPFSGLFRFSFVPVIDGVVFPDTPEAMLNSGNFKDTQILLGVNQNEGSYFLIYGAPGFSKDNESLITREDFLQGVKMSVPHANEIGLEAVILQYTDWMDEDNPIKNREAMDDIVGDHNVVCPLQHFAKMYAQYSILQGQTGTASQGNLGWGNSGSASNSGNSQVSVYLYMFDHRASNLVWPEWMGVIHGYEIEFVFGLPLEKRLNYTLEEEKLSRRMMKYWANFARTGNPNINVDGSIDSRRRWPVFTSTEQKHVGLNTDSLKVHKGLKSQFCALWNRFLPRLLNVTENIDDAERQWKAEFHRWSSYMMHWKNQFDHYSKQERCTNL

Question: With `CCNc1nc(Cl)nc(NCC)n1` [simazine] as the molecule, how does the “Interference with analysis of organophosphates” value read?
Answer: The value was “no interference”.

Question: With `CCNc1nc(Cl)nc(NC(C)C)n1` [atrazine] as the molecule, how does the “Interference with analysis of organophosphates” value read?
Answer: The value was “no interference”.

From US20150290612A1 (priority 2012, published 2015)
